Molecules are shown by their SMILES. ≈ marks a conversion by molar mass, not a printed value.

For orientation: solubility (kinetic) means solubility judged after dilution from a stock solution rather than from solid.

For this data set the following is noted: buffer; pH 7.4; 200.0 µM.
As to `O=C(CCCCN1CCCCC1)c1ccccc1`, the kinetic solubility was found to be 31.8 µg/mL (≈ 130 µM).

In turn, `CC(=O)C1=C(C)NC(=O)NC1c1ccc2c(c1)OCO2` (stereo not drawn) showed a kinetic solubility above 41.1 µg/mL.

In the case of `COc1cccc(C(O)c2nc3ccccc3n2C)c1` (stereo not drawn), the solubility (kinetic) came out at 28.9 µg/mL (≈ 108 µM).

For `Cc1[nH]c2ccccc2c1C(=O)CN1CCCC(C)C1` (stereo not drawn), the kinetic solubility stood at 40.5 µg/mL (≈ 150 µM).

Turning to `CC(C)(C)NC(=O)COC(=O)c1cc(Cl)ccc1[N+](=O)[O-]`, the kinetic solubility was above 47.2 µg/mL.

For the molecule `Cc1[nH]c2c(C)cccc2c(=O)c1CN1CCCCCC1`, the kinetic solubility was determined as 39.5 µg/mL (≈ 139 µM).

`COc1ccc(CCNC(=O)CCc2nc3ccccc3[nH]2)cc1OC`: the solubility (kinetic) was above 53 µg/mL.

For `Cn1cccc1C(=O)NC(=O)COC(=O)CCNS(=O)(=O)c1ccc(Cl)cc1`, the kinetic solubility was found to be 13.8 µg/mL (≈ 32.3 µM).

On to `Nc1cc(=O)[nH]c(SCC(=O)Nc2cccc(S(=O)(=O)N3CCCCCC3)c2)n1`, for which the kinetic solubility was determined as 11.7 µg/mL (≈ 26.7 µM).

`Cn1c(SCC(=O)NC2CCCCC2)nnc1-c1ccccn1` showed a kinetic solubility above 49.7 µg/mL.

For `Cc1ccc(S(=O)(=O)N2CCN(c3ccccc3)CC2)cc1C`, the kinetic solubility is below 0.4 µg/mL.

As to `Cc1ccnc(N2C(=O)c3ccc([N+](=O)[O-])cc3C2=O)c1`, the solubility (kinetic) was above 42.5 µg/mL.

With `O=C1NC(=S)N/C1=C/c1cccnc1`, the solubility (kinetic) is above 30.8 µg/mL.

Consider `CCCC(=O)Nc1ccccc1NC(=O)c1ccc2c(c1)OCO2`, for which the kinetic solubility was above 49 µg/mL.

Regarding `S=C(NC1CCCCC1)N1CCOCC1`, the kinetic solubility came to 33.8 µg/mL (≈ 148 µM).

As for `CC(CCN1CCN(CCO)CC1)c1ccccc1` (stereo not drawn), the solubility (kinetic) came to 23.1 µg/mL (≈ 88 µM).

In turn, `O=S(=O)(NCCc1ccccc1)c1ccc(Br)s1` showed a solubility (kinetic) of 27.5 µg/mL (≈ 79.4 µM).

Take `O=C(CCN1C(=O)C2C3C=CC(C3)C2C1=O)N1CCCCC1` (stereo not drawn): the solubility (kinetic) is above 45.4 µg/mL.

`CN(Cc1ccc(N(C)C)cc1)C(=O)c1cc2ccccc2o1` returned a kinetic solubility of 31.5 µg/mL (≈ 102 µM).

Consider `Cc1ccc(/C=C2/SC(=O)NC2=S)o1`, for which the kinetic solubility came to 31.1 µg/mL (≈ 138 µM).

In turn, `CSc1ccccc1NC(=O)Cc1ccccc1[N+](=O)[O-]` gave a solubility (kinetic) of 5.7 µg/mL (≈ 18.9 µM).

Molecule `O=C1CNC(=O)/C1=C/c1ccc(Br)cc1` returned a kinetic solubility of 26.9 µg/mL (≈ 101 µM).

As to `CN(Cc1ccccc1)C(=O)c1cc2cc(F)ccc2[nH]1`, the kinetic solubility was 1 µg/mL (≈ 3.54 µM).

The molecule `N#C/C(=N\O)c1nc2ccccc2s1` yielded a kinetic solubility above 30.5 µg/mL.

`Cc1ccc(NC(=O)CC(C)c2ccccc2)cc1S(=O)(=O)N1CCOCC1` (stereo not drawn) yielded a kinetic solubility of 47.5 µg/mL (≈ 118 µM).

`Cc1ccc(Cn2c(CCC(=O)O)nc3ncccc3c2=O)cc1` yielded a solubility (kinetic) above 48.5 µg/mL.

Molecule `CCc1ccccc1NC(=O)c1sc2nc(C)cc(C)c2c1N` showed a solubility (kinetic) of 0.5 µg/mL (≈ 1.54 µM).

The molecule `COC(=O)c1cc(C(=O)Nc2nc3ccccc3[nH]2)cc([N+](=O)[O-])c1` displayed a kinetic solubility of 1.1 µg/mL (≈ 3.23 µM). Against the preceding molecule, the solubility kinetic is about 2.2-fold higher.

As for `COC(=O)N1CCN(CCc2ccccc2)CC1`, the solubility (kinetic) is above 37.2 µg/mL.

Molecule `CCS(=O)(=O)c1ccc(C(=O)NC)c(Cl)c1Cl` gave a solubility (kinetic) above 44.4 µg/mL.

As for `Cc1cc(N2CCNCC2)nc2ccccc12`, the kinetic solubility worked out at 33.3 µg/mL (≈ 146 µM).

Consider `CC(NC(=O)COc1cccnc1[N+](=O)[O-])c1ccc(Cl)cc1Cl` (stereo not drawn), for which the solubility (kinetic) amounted to 44.1 µg/mL (≈ 119 µM).

Turning to `CC(CN1CCOCC1)OC(=O)c1cccc(Cl)c1.Cl` (stereo not drawn), the solubility (kinetic) worked out at 43.2 µg/mL.

Consider `COc1ccc(CC(=O)Nc2ccccc2N2CCCCC2)cc1OC`, for which the kinetic solubility amounted to 30.7 µg/mL (≈ 86.6 µM).

In the case of `Fc1ccccc1N1CCN(Cc2cnc(Cl)s2)CC1`, the kinetic solubility worked out at 37.1 µg/mL (≈ 119 µM).

Molecule `S=C(NCc1cccnc1)Nc1cc(Cl)cc(Cl)c1` gave a solubility (kinetic) of 39.6 µg/mL (≈ 127 µM).

For `O=[N+]([O-])c1ccc2c(c1)nc1n2CCN(CC2CCCO2)C1` (stereo not drawn), the kinetic solubility was determined as 41.1 µg/mL (≈ 136 µM).

Molecule `CC1(C)COC(Cn2c3ccccc3c3ccccc32)O1` (stereo not drawn) had a kinetic solubility below 0.6 µg/mL.

`CN1C(=O)CSC1=Nc1cccc(Cl)c1` showed a kinetic solubility of 34.2 µg/mL (≈ 142 µM).

Molecule `N#CCOC(=O)/C=C/c1ccc2c(c1)OCO2` returned a kinetic solubility of 4.6 µg/mL (≈ 19.9 µM).

Consider `CC1CCCC(NCC(=O)Nc2ccc(C(N)=O)cc2)C1C` (stereo not drawn), for which the kinetic solubility is above 45.5 µg/mL.

Molecule `O=C(Nc1ccc(S(=O)(=O)N2CCCC2)cc1)C1CCCCC1` registered a kinetic solubility of 13.7 µg/mL (≈ 40.7 µM).

Take `Cc1ccc2c(C(=O)CCl)c(C)[nH]c2c1`: the kinetic solubility worked out at 3.4 µg/mL (≈ 15.3 µM).

Take `Cc1ccc(CNC(=O)C2CCCN(c3cnccn3)C2)cc1` (stereo not drawn): the solubility (kinetic) is above 46.6 µg/mL.

In the case of `Cc1ccccc1N1CC(C(=O)Nc2ccc3c(c2)OCO3)CC1=O` (stereo not drawn), the solubility (kinetic) is 43.4 µg/mL (≈ 128 µM).

`COC(=O)c1ccncc1C(=O)Nc1ccc(OC)cc1` had a solubility (kinetic) of 39.4 µg/mL (≈ 138 µM).

The molecule `Cc1ccccc1C(=O)NCC(C)NC(=O)c1ccccc1C` (stereo not drawn) gave a solubility (kinetic) of 42.4 µg/mL (≈ 137 µM).

Regarding `Cc1noc(C)c1S(=O)(=O)N1CCC(C(=O)O)CC1`, the solubility (kinetic) was above 43.2 µg/mL.

In the case of `COc1ccc(NS(=O)(=O)c2ccc(C(=O)N3CCC(C)CC3)cc2)cc1`, the kinetic solubility is above 58.3 µg/mL.

In turn, `O=C(Nc1ccc(Cl)c(Cl)c1)N1CCOCC1` came in with a solubility (kinetic) above 41.3 µg/mL.

`CS(=O)(=O)N(CC(=O)N1CCOCC1)c1ccccc1Br`: the kinetic solubility was above 56.6 µg/mL.

Molecule `CCn1c2ccccc2c2cc(NC(=O)c3cc(C)on3)ccc21` gave a solubility (kinetic) of 2.3 µg/mL (≈ 7.2 µM).

`CSc1ncccc1C(=O)OCC(=O)Nc1ccc(Cl)cn1` showed a solubility (kinetic) of 3.6 µg/mL (≈ 10.7 µM).
